Measured values from BigSolDB 2.1.

CC[C@H](C)[C@H]1O[C@]2(CC[C@@H]1C)C[C@@H]1C[C@@H](C/C=C(\C)[C@@H](O[C@H]3C[C@H](OC)[C@@H](O[C@H]4C[C@H](OC)[C@@H](O)[C@H](C)O4)[C@H](C)O3)[C@@H](C)/C=C/C=C3\CO[C@@H]4[C@H](O)C(C)=C[C@@H](C(=O)O1)[C@]34O)O2
solubility (mole fraction)
Conditions	293.2 K	298.2 K	303.2 K	308.2 K	313.2 K
in isopropanol	0.0675	0.0823	0.0915	0.0967	0.106
in n-propanol	0.089	0.105	0.115	0.122	0.136
in water	5.1e-06	5.6e-06	6.1e-06	6.5e-06	6.9e-06
